According to paper PMC3523469 (Investigational New Drugs, 2012):
Like-named read-outs stand apart in the source and are kept apart here.

Type: in vivo, Japanese patients

## COc1cc2ncnc(Nc3ccc(F)c(Cl)c3)c2cc1NC(=O)/C=C/CN1CCCCC1 [dacomitinib, Dacomitinib]
15 mg QD (n = 3), G3
  Nausea, number of patients with treatment-related AE: 0
  Palmar–plantar erythrodysesthesia, number of patients with treatment-related AE: 0
  Paronychia, number of patients with treatment-related AE: 0
  Proteinuria, number of patients with treatment-related AE: 0
  Rash, number of patients with treatment-related AE: 0
  Skin fissures, number of patients with treatment-related AE: 0
  Stomatitis, number of patients with treatment-related AE: 0
  Weight decreased, number of patients with treatment-related AE: 0
30 mg QD (n = 3), All
  Alanine aminotransferase increased, number of patients with treatment-related AE: 0
  Aspartate aminotransferase increased, number of patients with treatment-related AE: 0
  Blood bilirubin increased, number of patients with treatment-related AE: 0
  Cheilitis, number of patients with treatment-related AE: 1
  Conjunctivitis, number of patients with treatment-related AE: 1
  Decreased appetite, number of patients with treatment-related AE: 1
  Diarrhea, number of patients with treatment-related AE: 3
  Dry skin, number of patients with treatment-related AE: 1
  ECG QT prolonged, number of patients with treatment-related AE: 0
  Edema, number of patients with treatment-related AE: 0
  Fatigue, number of patients with treatment-related AE: 1
  Hematuria, number of patients with treatment-related AE: 0
  Hypertrichosis, number of patients with treatment-related AE: 0
  Leukopenia, number of patients with treatment-related AE: 0
  Nausea, number of patients with treatment-related AE: 1
  Palmar–plantar erythrodysesthesia, number of patients with treatment-related AE: 2
  Paronychia, number of patients with treatment-related AE: 2
  Proteinuria, number of patients with treatment-related AE: 0
  Rash, number of patients with treatment-related AE: 3
  Skin fissures, number of patients with treatment-related AE: 0
  Stomatitis, number of patients with treatment-related AE: 2
  Weight decreased, number of patients with treatment-related AE: 1
30 mg QD (n = 3), G1
  Alanine aminotransferase increased, number of patients with treatment-related AE: 0
  Aspartate aminotransferase increased, number of patients with treatment-related AE: 0
  Blood bilirubin increased, number of patients with treatment-related AE: 0
  Cheilitis, number of patients with treatment-related AE: 1
  Conjunctivitis, number of patients with treatment-related AE: 1
  Decreased appetite, number of patients with treatment-related AE: 0
  Diarrhea, number of patients with treatment-related AE: 3
  Dry skin, number of patients with treatment-related AE: 0
  ECG QT prolonged, number of patients with treatment-related AE: 0
  Edema, number of patients with treatment-related AE: 0
  Fatigue, number of patients with treatment-related AE: 0
  Hematuria, number of patients with treatment-related AE: 0
  Hypertrichosis, number of patients with treatment-related AE: 0
  Leukopenia, number of patients with treatment-related AE: 0
  Nausea, number of patients with treatment-related AE: 1
  Palmar–plantar erythrodysesthesia, number of patients with treatment-related AE: 0
  Paronychia, number of patients with treatment-related AE: 0
  Proteinuria, number of patients with treatment-related AE: 0
  Rash, number of patients with treatment-related AE: 1
  Skin fissures, number of patients with treatment-related AE: 0
  Stomatitis, number of patients with treatment-related AE: 1
  Weight decreased, number of patients with treatment-related AE: 0
30 mg QD (n = 3), G2
  Alanine aminotransferase increased, number of patients with treatment-related AE: 0
  Aspartate aminotransferase increased, number of patients with treatment-related AE: 0
  Blood bilirubin increased, number of patients with treatment-related AE: 0
  Cheilitis, number of patients with treatment-related AE: 0
  Conjunctivitis, number of patients with treatment-related AE: 0
  Decreased appetite, number of patients with treatment-related AE: 1
  Diarrhea, number of patients with treatment-related AE: 0
  Dry skin, number of patients with treatment-related AE: 1
  ECG QT prolonged, number of patients with treatment-related AE: 0
  Edema, number of patients with treatment-related AE: 0
  Fatigue, number of patients with treatment-related AE: 1
  Hematuria, number of patients with treatment-related AE: 0
  Hypertrichosis, number of patients with treatment-related AE: 0
  Leukopenia, number of patients with treatment-related AE: 0
  Nausea, number of patients with treatment-related AE: 0
  Palmar–plantar erythrodysesthesia, number of patients with treatment-related AE: 2
  Paronychia, number of patients with treatment-related AE: 2
  Proteinuria, number of patients with treatment-related AE: 0
  Rash, number of patients with treatment-related AE: 2
  Skin fissures, number of patients with treatment-related AE: 0
  Stomatitis, number of patients with treatment-related AE: 1
  Weight decreased, number of patients with treatment-related AE: 1
30 mg QD (n = 3), G3
  Alanine aminotransferase increased, number of patients with treatment-related AE: 0
  Aspartate aminotransferase increased, number of patients with treatment-related AE: 0
  Blood bilirubin increased, number of patients with treatment-related AE: 0
  Cheilitis, number of patients with treatment-related AE: 0
  Conjunctivitis, number of patients with treatment-related AE: 0
  Decreased appetite, number of patients with treatment-related AE: 0
  Diarrhea, number of patients with treatment-related AE: 0
